Experiments:
[1] = tested on: B-Raf V600E (624mel, sk-mel-5) cells; assay: MAPK activity by immunoblotting for phosphorylated ERK1/2, B-Raf V600E cells; type: cell-based
Method: (§1) MAPK activity was measured in B-Raf V600E (624mel, sk-mel-5) and B-Raf W.T. (076mel, 013mel) cell samples by immunoblotting for phosphorylated ERK1/2 (pERK, Thr202/Tyr204), total ERK1/2 and actin after 48 hours of exposure to vemurafenib (1 μM).
(§2) MAPK activity was measured in vemurafenib-sensitive and vemurafenib-resistant B-Raf V600E (624mel) cell samples by immunoblotting for phosphorylated ERK1/2 (pERK, Thr202/Tyr204), total ERK1/2 and actin after 24 hours of exposure to 160 nM vemurafenib.

[2] = tested on: B-Raf W.T. (076mel, 013mel) cells; assay: MAPK activity by immunoblotting for phosphorylated ERK1/2, B-Raf W.T. cells; type: cell-based; settings: B-Raf W.T. cells 076mel, 1 μM, 48 hours, FIG. 2
Method: as §1

[3] = tested on: vemurafenib-resistant B-Raf V600E (624mel) cells; assay: MAPK activity by immunoblotting for phosphorylated ERK1/2, vemurafenib-resistant cells; type: cell-based; settings: vemurafenib-resistant 624mel; 160 nM, 24 hours; FIG. 4B
Method: Two vemurafenib-sensitive B-Raf V600E cell samples (526mel, 624mel) and vemurafenib-resistant cell lines derived therefrom were incubated for 2 days with 1 μM vemurafenib. Cells were then analyzed for CEACAM1 protein expression by FACS as described above. Vemurafenib-resistant cell lines were generated by gradual increase of the inhibitor's concentration in culture, up to 0.32 μM.
as §2

[4] = tested on: CEACAM1 expression on B-Raf V600E cells (526mel, 624mel); assay: CEACAM1 expression on cells by FACS, mutated B-Raf cells; type: cell-based, human
Method: Total RNA was extracted from 1.0*10^6 melanoma cells with TRIZOL. cDNA was generated with standard reverse transcriptase. Real time PCR was performed with CEACAM1-specific primers and compared to glyceraldehyde 3-phosphate dehydrogenase (GAPDH) tested as a control. Cycle threshold (Ct) values above 36 were considered as minimal or no expression. B-Raf genotype was determined by direct sequencing of amplified fragment from genomic DNA that contains the codon for position 600 of the B-Raf protein. Statistical analysis of the correlation between CEACAM1 expression (negative or positive) with the mutation status (positive=V600E, or negative=wild type) was performed by Fisher exact test.
Cells were then tested for CEACAM1 expression using MRG1 (murine antibody to human CEACAM1) in flow cytometry as described above. Total RNA was extracted with TRIZOL and cDNA was generated with a reverse transcriptase, according to routine protocols.

[5] = tested on: CEACAM1 expression on B-Raf W.T. cells (076mel); assay: CEACAM1 expression on cells by FACS, W.T. B-Raf cells; type: cell-based, human; settings: 076mel (W.T. B-Raf); 0.1 μM and 1 μM, 2 to 48 hours; FIG. 3A
[6] = tested on: B-Raf V600E 526mel melanoma cells; assay: Determined IC50 of vemurafenib used to generate resistant melanoma cells; type: cell-based
Method: B-Raf V600E 526mel melanoma cells were cultured in the presence of 1 μM vemurafenib. Cultivation was performed in RPMI 1640 supplemented with 1 mM Na-Pyruvate, 1 mM Pen-Strep, 1 mM L-Glutamine, 1 mM non-essential amino acids, and 10% heat inactivated fetal calf serum. […] Cells were then tested for CEACAM1 expression using MRG1 (murine antibody to human CEACAM1) in flow cytometry as described above. Total RNA was extracted with TRIZOL and cDNA was generated with a reverse transcriptase, according to routine protocols.

[7] = tested on: B-Raf V600E cell samples (526mel, 624mel) with cytotoxic T cells; assay: Killing of melanoma cells by cytotoxic T cells, LDH release; type: cell-based; settings: pre-incubated with 1 μM, overnight, effector-target ratio 5:1, FIG. 7
Method: Melanoma cells were pre-incubated with 1 μM vemurafenib and then co-incubated overnight with HLA-A2 matched antigen-matched T cells in effector-target ratio of 5:1. Cell killing was determined by LDH release.

[8] = tested on: CEACAM1 expression on sk-mel-2 cells (W.T. B-Raf, mutated N-Ras); assay: CEACAM1 expression on cells by FACS, W.T. B-Raf / mutated N-Ras cells; settings: sk-mel-2 (W.T. B-Raf, mutated N-Ras); 1 μM; FIG. 3C
Method: At each time point, CEACAM1 expression on the cells was determined by FACS. Volume equivalents of DMSO (vehicle) were used as control.

## CCCS(=O)(=O)Nc1ccc(F)c(C(=O)c2c[nH]c3ncc(-c4ccc(Cl)cc4)cc23)c1F [vemurafenib, N-(3-{[5-(4-chlorophenyl)-1H-pyrrolo[2,3-b]pyridin-3-yl]carbonyl}-2,4-difluorophenyl)propane-1-sulfonamide]
[1]; B-Raf V600E cells 624mel, sk-mel-5, 1 μM, 48 hours, FIG. 2
  phosphorylation of ERK1/2 (pERK, Thr202/Tyr204): almost completely abolishes the phosphorylation of ERK1/2
[1]; vemurafenib-sensitive 624mel, 160 nM, 24 hours, FIG. 4B
  phosphorylation of ERK1/2 (pERK, Thr202/Tyr204): almost completely abolishes the phosphorylation of ERK1/2
[2]
  phosphorylation of ERK1/2 (pERK, Thr202/Tyr204): no substantial effect
[3]
  MAPK activity (phosphorylated ERK1/2): practically uninterrupted
[4]; 526mel, 624mel (mutated B-Raf), 0.1 μM and 1 μM, 2 to 48 hours, FIG. 3A-B
  CEACAM1 expression levels on cells: dose-dependent effect
[4]; B-Raf V600E 526mel melanoma cells, 1 μM, flow cytometry with MRG1, FIG. 5
  CEACAM1 expression: down regulates CEACAM1 expression
[5]
  CEACAM1 expression levels on cells: did not have any effect
[6]
  IC50: 0.64 nM
[7]
  sensitization of melanoma cells to cytotoxic T cells (cell killing by LDH release): significantly sensitizes melanoma cells to cytotoxic T cells
[8]
  CEACAM1 expression levels on cells: no effect
